# From ChEMBL document CHEMBL5465560, “Selectivity Literature for EUbOPEN Chemogenomic Library” (2024)
# Tests used:
# [1] = molecular target: T1, Serine/threonine-protein kinase Sgk3 (Homo sapiens) (UniProt Q96BR1); experiment: Selectivity interaction (ActivX KiNativ screen (kinase selectivity in THP-1 cell lysates)) EUB0000639a SGK3; format: subcellular; details: lysate, at 0.2 µM
# T1 sequence (whole entry): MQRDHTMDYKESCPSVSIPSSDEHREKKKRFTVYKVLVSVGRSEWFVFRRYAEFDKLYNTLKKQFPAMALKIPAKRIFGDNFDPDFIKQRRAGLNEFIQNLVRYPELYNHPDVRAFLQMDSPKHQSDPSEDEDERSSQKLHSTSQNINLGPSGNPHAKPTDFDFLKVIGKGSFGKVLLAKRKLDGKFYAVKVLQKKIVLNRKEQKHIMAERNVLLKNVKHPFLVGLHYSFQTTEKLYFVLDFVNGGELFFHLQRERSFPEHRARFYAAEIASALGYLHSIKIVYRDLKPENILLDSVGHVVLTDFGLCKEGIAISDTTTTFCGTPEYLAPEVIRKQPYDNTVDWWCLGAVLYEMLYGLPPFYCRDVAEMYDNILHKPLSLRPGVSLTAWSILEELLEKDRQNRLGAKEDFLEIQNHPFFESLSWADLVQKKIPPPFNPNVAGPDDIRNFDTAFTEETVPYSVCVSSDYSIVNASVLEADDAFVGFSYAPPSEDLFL
# [2] = molecular target: Ribosomal protein S6 kinase alpha-4 (Homo sapiens) (UniProt O75676); experiment: Selectivity interaction (KinomeScan (DiscoverX)) EUB0001079a RPS6KA4; details: at 1 µM
# Chain of Ribosomal protein S6 kinase alpha-4 (Homo sapiens) (O75676 whole entry, looked up): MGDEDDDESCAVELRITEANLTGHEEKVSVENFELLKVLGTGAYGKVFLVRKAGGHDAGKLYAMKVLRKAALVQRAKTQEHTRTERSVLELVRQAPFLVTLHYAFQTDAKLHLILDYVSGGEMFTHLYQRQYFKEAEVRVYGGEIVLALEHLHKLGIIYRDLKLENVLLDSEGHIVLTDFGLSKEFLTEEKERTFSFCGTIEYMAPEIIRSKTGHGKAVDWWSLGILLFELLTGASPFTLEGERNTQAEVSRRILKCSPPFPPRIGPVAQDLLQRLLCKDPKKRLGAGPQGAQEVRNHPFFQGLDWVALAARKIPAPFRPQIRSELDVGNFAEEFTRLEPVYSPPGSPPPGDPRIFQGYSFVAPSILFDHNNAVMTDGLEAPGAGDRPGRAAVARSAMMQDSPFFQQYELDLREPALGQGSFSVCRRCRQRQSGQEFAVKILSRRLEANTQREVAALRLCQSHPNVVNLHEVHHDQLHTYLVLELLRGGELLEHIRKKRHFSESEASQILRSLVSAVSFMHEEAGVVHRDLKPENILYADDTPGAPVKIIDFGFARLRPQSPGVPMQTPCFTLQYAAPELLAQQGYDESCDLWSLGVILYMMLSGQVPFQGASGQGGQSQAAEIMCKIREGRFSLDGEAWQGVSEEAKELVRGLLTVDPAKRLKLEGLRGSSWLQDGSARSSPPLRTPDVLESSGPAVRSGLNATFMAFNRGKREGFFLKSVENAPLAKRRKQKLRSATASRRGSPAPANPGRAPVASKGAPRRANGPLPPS
# [3] = molecular target: T2, Tyrosine-protein kinase TXK (Homo sapiens) (UniProt P42681); experiment: Selectivity interaction (KinomeScan (DiscoverX)) EUB0000092b TXK; details: at 10 µM
# T2 sequence (whole entry): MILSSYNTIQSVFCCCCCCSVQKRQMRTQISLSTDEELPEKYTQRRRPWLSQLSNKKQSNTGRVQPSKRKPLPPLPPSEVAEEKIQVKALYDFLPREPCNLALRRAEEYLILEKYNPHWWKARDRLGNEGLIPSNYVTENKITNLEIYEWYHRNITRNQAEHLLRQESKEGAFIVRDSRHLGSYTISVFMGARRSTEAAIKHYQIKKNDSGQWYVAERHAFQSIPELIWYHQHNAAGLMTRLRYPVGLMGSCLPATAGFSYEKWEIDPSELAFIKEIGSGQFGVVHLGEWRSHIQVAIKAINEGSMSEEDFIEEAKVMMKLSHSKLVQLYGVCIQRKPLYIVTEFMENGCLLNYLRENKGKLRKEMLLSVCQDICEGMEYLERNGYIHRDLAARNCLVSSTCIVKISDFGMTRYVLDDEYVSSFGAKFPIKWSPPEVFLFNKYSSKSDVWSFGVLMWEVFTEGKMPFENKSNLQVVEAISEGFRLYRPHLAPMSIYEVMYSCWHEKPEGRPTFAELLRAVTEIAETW
# [4] = molecular target: Protein kinase C delta type (Homo sapiens) (UniProt Q05655); experiment: Selectivity interaction (KinomeScan (DiscoverX)) EUB0000045b PRKCD
# Chain of Protein kinase C delta type (Homo sapiens) (Q05655 whole entry, looked up): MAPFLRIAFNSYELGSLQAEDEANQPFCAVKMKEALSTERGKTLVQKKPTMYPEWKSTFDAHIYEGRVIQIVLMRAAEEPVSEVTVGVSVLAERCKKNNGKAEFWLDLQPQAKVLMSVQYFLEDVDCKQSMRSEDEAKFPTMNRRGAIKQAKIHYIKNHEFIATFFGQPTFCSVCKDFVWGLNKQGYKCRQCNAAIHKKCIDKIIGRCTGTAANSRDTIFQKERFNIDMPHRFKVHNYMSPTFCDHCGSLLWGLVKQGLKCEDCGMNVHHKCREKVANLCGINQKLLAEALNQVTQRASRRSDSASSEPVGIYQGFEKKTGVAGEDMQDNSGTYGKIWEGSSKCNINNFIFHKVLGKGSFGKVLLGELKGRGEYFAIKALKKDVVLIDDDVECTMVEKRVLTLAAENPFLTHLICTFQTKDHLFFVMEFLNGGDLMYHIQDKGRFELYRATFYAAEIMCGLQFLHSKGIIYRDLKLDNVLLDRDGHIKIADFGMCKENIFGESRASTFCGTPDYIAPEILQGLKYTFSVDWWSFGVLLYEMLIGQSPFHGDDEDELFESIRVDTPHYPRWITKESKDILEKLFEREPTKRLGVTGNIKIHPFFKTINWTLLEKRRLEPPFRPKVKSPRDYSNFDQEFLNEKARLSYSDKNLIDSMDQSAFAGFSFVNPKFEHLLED
# [5] = molecular target: T3, Ephrin type-A receptor 6 (Homo sapiens) (UniProt Q9UF33); experiment: Selectivity interaction (KinomeScan (DiscoverX)) EUB0000607a EPHA6; details: at 10 µM
# T3 sequence (whole entry): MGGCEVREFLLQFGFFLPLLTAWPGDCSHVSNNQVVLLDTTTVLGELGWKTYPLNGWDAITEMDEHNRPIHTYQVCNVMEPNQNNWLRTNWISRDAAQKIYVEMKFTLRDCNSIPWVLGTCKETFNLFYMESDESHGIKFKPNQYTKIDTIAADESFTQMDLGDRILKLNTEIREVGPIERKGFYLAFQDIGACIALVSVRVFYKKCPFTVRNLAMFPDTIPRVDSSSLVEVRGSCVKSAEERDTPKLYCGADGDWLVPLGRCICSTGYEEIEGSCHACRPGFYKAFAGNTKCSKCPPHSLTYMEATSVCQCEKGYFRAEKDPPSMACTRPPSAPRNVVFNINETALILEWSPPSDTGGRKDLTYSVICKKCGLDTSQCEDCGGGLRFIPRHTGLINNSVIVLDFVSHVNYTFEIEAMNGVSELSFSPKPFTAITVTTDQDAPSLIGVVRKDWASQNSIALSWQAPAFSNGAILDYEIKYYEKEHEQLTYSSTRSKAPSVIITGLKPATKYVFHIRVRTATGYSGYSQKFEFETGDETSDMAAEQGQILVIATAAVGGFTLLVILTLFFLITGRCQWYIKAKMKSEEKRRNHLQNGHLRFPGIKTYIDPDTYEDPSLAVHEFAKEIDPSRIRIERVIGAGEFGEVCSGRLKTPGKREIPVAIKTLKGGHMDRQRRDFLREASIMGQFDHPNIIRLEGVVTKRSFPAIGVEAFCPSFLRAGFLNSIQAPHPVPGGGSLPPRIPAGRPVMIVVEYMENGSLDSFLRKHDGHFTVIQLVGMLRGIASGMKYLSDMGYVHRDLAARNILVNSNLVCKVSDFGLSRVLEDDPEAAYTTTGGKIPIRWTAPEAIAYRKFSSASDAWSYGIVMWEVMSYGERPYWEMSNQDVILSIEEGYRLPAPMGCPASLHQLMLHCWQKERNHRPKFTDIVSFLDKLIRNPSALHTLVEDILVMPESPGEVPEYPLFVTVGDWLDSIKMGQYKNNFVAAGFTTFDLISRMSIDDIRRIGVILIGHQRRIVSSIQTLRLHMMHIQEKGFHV
# [6] = molecular target: T4, 5-hydroxytryptamine receptor 3A (Homo sapiens) (UniProt P46098); experiment: Selectivity interaction (Panel of kinases, GPCRs, ion channels and transporters (enzymatic assay)) EUB0000223bCl HTR3A
# T4 sequence (whole entry): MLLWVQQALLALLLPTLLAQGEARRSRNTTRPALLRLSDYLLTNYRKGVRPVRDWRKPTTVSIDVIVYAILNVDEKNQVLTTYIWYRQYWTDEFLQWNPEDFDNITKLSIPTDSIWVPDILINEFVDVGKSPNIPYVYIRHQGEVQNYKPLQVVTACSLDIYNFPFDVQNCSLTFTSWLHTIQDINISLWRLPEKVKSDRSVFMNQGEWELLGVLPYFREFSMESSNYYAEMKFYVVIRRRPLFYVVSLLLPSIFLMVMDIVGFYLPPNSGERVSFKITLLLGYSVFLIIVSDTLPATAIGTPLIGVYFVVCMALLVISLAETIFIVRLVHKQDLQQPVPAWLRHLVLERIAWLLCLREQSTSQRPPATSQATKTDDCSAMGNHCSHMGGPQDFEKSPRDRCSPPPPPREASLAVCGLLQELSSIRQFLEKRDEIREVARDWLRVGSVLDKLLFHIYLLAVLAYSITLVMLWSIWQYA
smiles,measurement,setting,value
CC[C@@H]1[C@H](F)C(=O)N[C@@H]1COc1nccc2cc(C(N)=O)c(OC)cc12 [ZIMLOVISERTIB],% of inhibition,[1],-5.7%
Nc1cnc(N2CCc3cc(S(=O)(=O)Nc4c(F)cc(Cl)cc4F)cc(N4CCCC4=O)c32)nc1 [TP-020n],% of control,[2],96%
CCC(=O)N1CCN(c2ccc(-n3c(=O)ccc4cnc5ccc(-c6cnc7ccccc7c6)cc5c43)cc2C(F)(F)F)CC1,% of control,[3],54%
C=CC(=O)Nc1cc(-n2c(=O)ccc3cnc4ccc(-c5ccc(NS(C)(=O)=O)cc5)cc4c32)ccc1C,% of control,[4]; at 1 µM,41%
same,% of control,[4]; at 10 µM,91%
CNC(=O)Nc1ccc(-c2nc(N3CC4CCC(C3)O4)c3cnn(C4CCC5(CC4)OCCO5)c3n2)cc1,% of control,[5],98%
COc1cc(C(=O)N2CC[C@@H](O)[C@@H](N)C2)cc2nc(-c3cc4ccccc4n3CC3CC3)n(C)c12,pXC50,[6],5.9 M
